Assay [1] deals with T1, HDAC6 (Homo sapiens, UniProt Q9UBN7).
T1 sequence (Q9UBN7 1-1215): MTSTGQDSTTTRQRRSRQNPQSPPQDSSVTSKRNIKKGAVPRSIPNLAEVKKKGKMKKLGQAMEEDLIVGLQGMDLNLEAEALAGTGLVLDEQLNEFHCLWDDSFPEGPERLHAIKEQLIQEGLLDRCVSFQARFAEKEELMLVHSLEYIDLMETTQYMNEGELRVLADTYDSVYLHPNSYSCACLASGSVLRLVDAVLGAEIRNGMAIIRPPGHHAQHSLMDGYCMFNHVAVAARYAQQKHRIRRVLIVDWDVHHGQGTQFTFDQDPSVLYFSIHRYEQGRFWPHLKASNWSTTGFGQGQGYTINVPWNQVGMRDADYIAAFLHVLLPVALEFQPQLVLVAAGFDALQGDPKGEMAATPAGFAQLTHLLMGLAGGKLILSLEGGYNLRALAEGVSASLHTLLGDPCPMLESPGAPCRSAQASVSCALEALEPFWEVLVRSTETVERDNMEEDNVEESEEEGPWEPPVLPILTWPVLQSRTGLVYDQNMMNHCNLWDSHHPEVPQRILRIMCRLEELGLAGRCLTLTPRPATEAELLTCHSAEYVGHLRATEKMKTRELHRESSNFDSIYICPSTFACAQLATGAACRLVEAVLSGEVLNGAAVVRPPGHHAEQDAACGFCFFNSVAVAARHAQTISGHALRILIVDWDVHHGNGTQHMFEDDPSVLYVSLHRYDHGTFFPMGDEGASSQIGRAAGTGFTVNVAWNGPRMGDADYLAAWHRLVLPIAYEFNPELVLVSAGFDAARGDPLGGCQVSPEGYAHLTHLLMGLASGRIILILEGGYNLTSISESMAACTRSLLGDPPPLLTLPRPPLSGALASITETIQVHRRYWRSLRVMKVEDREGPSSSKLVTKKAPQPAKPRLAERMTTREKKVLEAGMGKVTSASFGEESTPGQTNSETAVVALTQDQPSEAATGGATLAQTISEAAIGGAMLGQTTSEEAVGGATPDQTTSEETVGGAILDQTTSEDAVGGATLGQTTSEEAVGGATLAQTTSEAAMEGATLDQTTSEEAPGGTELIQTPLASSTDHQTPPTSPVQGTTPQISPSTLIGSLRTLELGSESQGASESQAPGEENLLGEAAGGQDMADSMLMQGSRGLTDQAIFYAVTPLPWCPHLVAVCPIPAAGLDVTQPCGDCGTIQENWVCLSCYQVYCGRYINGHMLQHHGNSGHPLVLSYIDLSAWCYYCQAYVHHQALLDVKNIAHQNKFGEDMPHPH
As to the kind of experiment: In vitro HDAC inhibitory activity assay, recombinant HDAC6 (fluorogenic substrate ZMAL). Type of assay: biochemical. Further details: purchased BPS Biosciences. Here is the method:
(§1) The in vitro testing on recombinant HDACs was performed as previously described. Recombinant human HDAC1 and −6 were purchased from BPS Biosciences. The enzyme inhibition was determined by using a reported homogenous fluorescence assay. […] Fluorescence intensity was measured at an excitation wavelength of 390 nm and an emission wavelength of 460 nm in a microtiter plate reader (BMG Polarstar).
(§2) Inhibition was measured at increasing concentration and IC50 was calculated by nonlinear regression with Origin 9.0G software.

In a further assay the target is HDAC1 (Homo sapiens, UniProt Q13547). As to the kind of experiment: In vitro HDAC inhibitory activity assay, recombinant HDAC1 (fluorogenic substrate ZMAL). The assay is classed as biochemical. The arrangement: purchased BPS Biosciences. Here is the method:
as §1, §2

Assay [2] addresses T1, HDAC6. As to the kind of experiment: HDAC6 degradation in SK-N-BE(2)-C cells (Western blot). Conditions: 6 h, up to 10 µM.
Description: Figure 6 (A) SK-N-BE(2)-C neuroblastoma cells were treated for indicated time points with 10 µM of PROTACs. Degradation of HDAC8 and acetylation of HDAC8 target was analyzed via Western blot. […] Acetylation of HDAC8 target SMC3 and HDAC6 target tubulin, as well as total HDAC8 levels, were assessed by Western blot. Quantified ac-SMC3 or ac-tubulin expression, respectively, was normalized to the respective tubulin loading control and to the solvent control (DMSO). This quantification is reflected by the numbers below each blot. […] Total HDAC6, total HDAC1, total HDAC8, and acetyl-histone H4 expression levels, were assessed by Western blot. Total GAPDH protein levels served as a loading control (LC). * unspecific bands obtained through reprobing of the membrane.
HDAC6 degradation and tubulin hyperacetylation by PROTACs and control compounds
Left: SK-N-BE(2)-C neuroblastoma cells were treated for 6 h with indicated PROTACs (10 µM
each). Total HDAC6, acetyl-tubulin and total tubulin (LC #1: loading control #1) expression levels,
were assessed by western blot. Total GAPDH protein levels served as a second loading control
(LC #2). Right: presentation of quantified acetyl-tubulin levels, normalized to the DMSO control
The next assay has as its system IMR-32 cells. As to the kind of experiment: Cell viability / proliferation (trypan blue, viable cell count) in neuroblastoma cells. The assay is classed as cell-based, human. The note with it: 5 and 10 µM. Here is the method: Moreover, we treated neuroblastoma IMR-32 cells with the remaining PROTACs and counted the resulting viable cells. We quantified the percentage of dead cells as shown in (Figure 5B,C). In addition, cell proliferation was assessed via counting of viable cells (Figure 5D,E). […] As reference, the HDAC8 inhibitor PCI-34501 was used.
Adherent cells were detached using trypsin–EDTA (ThermoFisher Scientific, Bremen, Germany) and pooled with corresponding supernatant, centrifuged, and resuspended in 1 mL of cell culture medium. Cell viability (viable cell number, % viability, % dead cells) was measured by automated trypan blue staining using the Vi-Cell XR Cell Viability Analyzer (Beckman Coulter, Krefeld, Germany).
Figure 5 (A) Neuroblastoma SK-N-BE(2)-C cells; Colony Assay, 10 days (compound treatment within first 96 h). Stained with crystal violet and quantified with ImageJ. (B,C) Trypan Blue assay for detection of dead cells. Neuroblastoma IMR-32 cells were either treated with 5 µM (B) or 10 µM (C). (D,E) Cell proliferation assessed via counting of viable cells. IMR-32 cells were either treated with 5 µM (D) or 10 µM (E) PROTACs. HDAC8i PCI-34501 served as a positive control, untreated (MEM) and solvent (DMSO) treated cells served as negative controls.

Sequence of HDAC1 (Q13547 whole entry): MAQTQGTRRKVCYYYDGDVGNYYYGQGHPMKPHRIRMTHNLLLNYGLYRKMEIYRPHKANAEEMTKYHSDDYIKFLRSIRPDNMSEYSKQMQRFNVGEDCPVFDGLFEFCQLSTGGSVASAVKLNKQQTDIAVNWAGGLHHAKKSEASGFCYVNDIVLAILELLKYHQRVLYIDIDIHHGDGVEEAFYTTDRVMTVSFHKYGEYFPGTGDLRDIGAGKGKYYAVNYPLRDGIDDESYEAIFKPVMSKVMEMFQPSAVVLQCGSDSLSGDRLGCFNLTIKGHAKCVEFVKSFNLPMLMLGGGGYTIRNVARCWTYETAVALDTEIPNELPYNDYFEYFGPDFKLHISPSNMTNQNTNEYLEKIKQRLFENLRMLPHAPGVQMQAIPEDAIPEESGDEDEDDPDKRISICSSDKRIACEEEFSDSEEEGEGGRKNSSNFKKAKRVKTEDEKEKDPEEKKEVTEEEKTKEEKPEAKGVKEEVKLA

Take `COC(=O)c1ccc(C)c(NCc2ccc(OCc3cn(CCCCCC(=O)Nc4cccc5c4C(=O)N(C4CCC(=O)NC4=O)C5=O)nn3)cc2)c1` (centres unmarked) [33a]: the “HDAC6 inhibitory activity” value on HDAC6 [1] (negative control) is reported as “did not demonstrate a strong inhibitory activity”. The “HDAC1 inhibitory activity” value on HDAC1 (negative control) is “did not demonstrate a strong inhibitory activity”.

For the compound `COc1ccc(C(=O)NO)cc1NC(=O)c1ccc(NC(=O)CCCCCCCNc2cccc3c2C(=O)N(C2CCC(=O)NC2=O)C3=O)cc1` (centres unmarked) [CRBN_1b], the HDAC6 degradation entry at HDAC6 [2] is “do not degrade”. For the same compound, the results for the IC50 on HDAC6 [1] and at HDAC1 were 560 ± 100 nM and over 20000 nM, respectively. Also, in the assay with IMR-32 cells, the “Effect in cell proliferation assay (viable cell count)” value is on record as “strongest effect”.

With `O=C(COc1ccc(CNc2cc(C(=O)NO)ccc2Cl)cc1)NCCCCCNC(=O)CC12CC3CC(CC(C3)C1)C2` [HyT_1p], the inhibition at 1 µM at HDAC6 [1] (1 µM, read-out: HDAC6 % inhib. at given conc.) was 12.4%; at HDAC1 (1 µM, read-out: HDAC1 % inhib. at given conc.), 2.3%. Further, the inhibition at 10 µM at HDAC6 [1] (10 µM, read-out: HDAC6 % inhib. at given conc.) amounted to 72.8%; at HDAC1 (10 µM, read-out: HDAC1 % inhib. at given conc.) it was 40%. The “Effect in cell proliferation assay (viable cell count)” value in the assay on IMR-32 cells is on record as “strongest effect”.

Broadly, the IC50 is the concentration needed to halve the response being measured.

The values are drawn from PMC9322761, “Design, Synthesis and Biological Characterization of Histone Deacetylase 8 (HDAC8) Proteolysis Targeting Chimeras (PROTACs) with Anti-Neuroblastoma Activity” (International Journal of Molecular Sciences, 2022).
